Measured values reported in patent publication US11976083B2, “Inhibitors of peptidylarginine deiminases” (Gilead Sciences, Inc., priority 2020, dated 2024).
Blank lines part the entries; values can stand above or below the molecule they belong to.

Experiments:
[1] = test system: collagen induced arthritis (CIA); settings: prophylactic treatment, murine CIA model; cited from earlier work
[2] = test system: models of chronic and acute inflammatory diseases; settings: MRL/lpr mouse lupus, hemorrhagic shock in rats, mouse CLP sepsis, mouse DSS-colitis, ApoE-/- arteriosclerosis, diabetic wound healing models; cited from earlier work
[3] = from COc1cc(C(=O)OC(C)C)cc2nc(-c3cc4ccc([C@@H](C)N)nc4n3CCCCCc3ccccc3C(=O)O)n(C)c12; amide bond; HATU; DCM; 24.6 mM; 25.0 °C; 16.0 h
human PAD4 = target: T1, human PAD4 (Homo sapiens, UniProt Q9UM07); assay: In vitro PAD4 BAEE biochemical assay; settings: BAEE substrate 3 mM, 5 nM PAD4, 2 mM calcium chloride; geometric mean of multiple experiments
T1 construct: human PAD4 (NM_012387), A2-P663, was PCR amplified; His-SUMO (N, cleaved yes); made in house; host or cells: E. coli BL21(DE3)
Summary of the method: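 Recombinant PAD4 (5 nM final) with 2 mM CaCl2 was preincubated with compound for 30 min at 25 °C in MOPS pH 7.6 buffer with DTT, then reacted with 3 mM BAEE for 2 h at 25 °C. Released ammonia was detected fluorimetrically with o-phthalaldehyde/DTT; IC50 from four-parameter fit, geometric mean of experiments.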

T1 sequence (Q9UM07 2-663): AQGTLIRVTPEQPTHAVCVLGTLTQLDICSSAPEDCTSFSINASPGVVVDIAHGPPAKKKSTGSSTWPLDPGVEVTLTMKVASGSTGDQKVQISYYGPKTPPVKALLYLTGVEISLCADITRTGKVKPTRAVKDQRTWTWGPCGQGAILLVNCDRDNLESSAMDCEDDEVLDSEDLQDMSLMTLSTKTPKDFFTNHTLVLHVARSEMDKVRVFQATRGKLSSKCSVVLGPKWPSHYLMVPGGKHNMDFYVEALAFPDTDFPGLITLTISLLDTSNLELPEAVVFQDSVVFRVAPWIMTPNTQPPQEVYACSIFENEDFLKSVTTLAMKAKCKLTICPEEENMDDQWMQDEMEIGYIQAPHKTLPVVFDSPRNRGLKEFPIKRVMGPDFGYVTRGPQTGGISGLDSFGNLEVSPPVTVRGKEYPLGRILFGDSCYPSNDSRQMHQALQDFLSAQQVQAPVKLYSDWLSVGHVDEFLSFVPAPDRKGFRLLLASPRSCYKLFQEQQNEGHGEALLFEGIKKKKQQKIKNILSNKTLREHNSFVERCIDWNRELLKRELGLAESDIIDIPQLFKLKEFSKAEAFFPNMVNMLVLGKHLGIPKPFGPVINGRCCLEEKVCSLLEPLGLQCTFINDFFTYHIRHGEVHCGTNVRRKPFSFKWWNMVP

Molecule: NC(=O)[C@H](CCCN=C(N)CCl)NC(=O)c1ccccc1 [chloroamidine]
- clinical and histological scores [1]: improvement of clinical and histological scores
- clinical, inflammatory, histopathological and mechanical end points [2]: reduction of clinical, inflammatory, histopathological and mechanical end points

Molecule: CCn1c(-c2nc3cc(C(=O)N4CCC[C@@H](N)C4)cc(OC)c3n2C)cc2cccnc21.Cl [GSK199]
- clinical and histological scores [1]: improvement of clinical and histological scores

Molecule: YW3-56
- clinical, inflammatory, histopathological and mechanical end points [2]: reduction of clinical, inflammatory, histopathological and mechanical end points

Molecule: COc1cc(C(=O)OC(C)C)cc2nc(-c3cc4ccc5nc4n3CCCCCc3ccccc3C(=O)N[C@@H]5C)n(C)c12
- ring closure, yield of all isomers [3]: 70.9%

- IC50 (human PAD4): 25 nM
Molecule: C[C@H]1NC(=O)[C@@H]2C[C@H]2CCCC(F)(F)Cn2c(-c3nc4cc(C(=O)N5C[C@H](N)[C@@H]6CC[C@H]5C6)cc(F)c4n3C3CC3)cc3ccc1nc32 [Example 438, (2~{R},5~{R},7~{R})-14-[5-[(1~{S},4~{R},5~{R})-4-amino-2-azabicyclo[3.2.1]octane-2-carbonyl]-1-cyclopropyl-7-fluoro-benzimidazol-2-yl]-11,11-difluoro-2-methyl-3,13,19-triazatetracyclo[11.5.2.0^{5,7}.0^{16,20}] icosa-1(19),14,16(20),17-tetraen-4-one]

- IC50 (human PAD4): 26 nM
Molecule: [2H]C1([2H])CCCC[C@@H]2C[C@H]2C(=O)N[C@H](C)c2ccc3cc(-c4nc5cc(C(=O)N6C[C@H](N)[C@@H]7CC[C@H]6C7)cc(F)c5n4C4CC4)n1c3n2 [Example 482, (2~{R},5~{R},7~{R})-14-[5-[(1~{S},4~{R},5~{R})-4-amino-2-azabicyclo[3.2.1]octane-2-carbonyl]-1-cyclopropyl-7-fluoro-benzimidazol-2-yl]-12,12-dideuterio-2-methyl-3,13,19-triazatetracyclo[11.5.2.0^{5,7}.0^{16,20}] icosa-1(19),14,16(20),17-tetraen-4-one]

- IC50 (human PAD4): 53 nM
Molecule: COc1cc(C(=O)N2CCC[C@@H](N)C2)cc2nc(-c3cc4ccc5nc4n3C[C@H]3C[C@@H]3CCCC(C)(C)C(=O)N[C@@H]5C)n(C)c12 [Example 292, (3~{S),5~{S},12~{R})-18-[5-[(3~{R})-3-aminopiperidine-1-carbonyl]-7-methoxy-1-methyl-benzimidazol-2-yl]-9,9,12-trimethyl-1,11,20-triazatetracyclo[11.5.2.0^{3,5}.0^{16,19}] icosa-13(20),14,16(19),17-tetraen-10-one]

- IC50 (human PAD4): 29 nM
Molecule: C[C@H]1NC(=O)[C@@H]2C[C@H]2CCCCCn2c(-c3nc4cc(C(=O)N[C@H]5CNCC[C@@H]5F)c(F)cc4n3CCC(N)=O)cc3ccc1nc32 [Example 428, 1-(3-amino-3-oxo-propyl)-6-fluoro-~ {N}-[(3~{S},4~{S})-4-fluoro-3-piperidyl]-2-[(2~{R},5~{R},7~{R})-2-methyl-4-oxo-3,13,19-triazatetracyclo[11.5.2.0^{5,7}.0^{16,20}]icosa-1(19),14,16(20),17-tetraen-14-yl]benzimidazole-5-carboxamide]
